# Assay results from patent publication US20040127475A1, “Apparatus and method for delivering compounds to a living organism” (Estrogen Vascular Technology, LLC, priority 1999, published 2004).
# System: porcine coronary arteries
# Assay: 17B-estradiol eluting stents in the pig model of instent restenosis, histomorphometric analysis at 30 days
# Type: in vivo
# Settings: pre-clinical work, same stent, dose and loading process as Example 3
# Description: In another example, low and high dose 17B-estradiol eluting stents were compared with control stents in a randomized fashion in 18 porcine coronary arteries. Each artery of six pigs were randomly stented with either a control, low-dose or high-dose 17-estradiol eluting stent. All animals were sacrificed at 30 days for histomorphometric analysis.
# The experiment and animal care conformed to National Institutes of Health and American Heart Association guidelines for the care and use of animals and were approved by the Institutional Animal Care and Use Committee at the Washington Hospital Center. Six domestic juvenile swine weighing 35-45 kg were used. […] Heart rate, blood pressure and electrocardiography were monitored throughout the procedure. […]
# Coronary angiography was performed after intracoronary nitroglycerin (200 μg) administration and recorded on cine film (Phillips Cardiodiagnost; Shelton, Conn.). […]
# The histopathologist was blinded to the stent types in each artery. […] The vessel injury score was determined by the method described by Kornowski et al. The scoring of endothelialization is based on percent of intimal surface covered by endothelial cells. […]
# Data (mean±standard deviation) were analyzed to determine differences between treatment groups using an ANOVA with a post-hoc Bonferroni analysis. […]
smiles,measurement,value
"C[C@]12CC[C@@H]3c4ccc(O)cc4CC[C@H]3[C@@H]1CC[C@@H]2O [17β-estradiol, 17β-Estradiol]",reduction in in-stent neo-intimal formation,40%
